Data reported in publication PMC10208570, “Peptidomimetic antibiotics disrupt the lipopolysaccharide transport bridge of drug-resistant Enterobacteriaceae” (Science Advances, 2023).
≈ marks a conversion by molar mass, not a printed value. Read-outs that look alike come from different tables or passages of the source. Where a SMILES comes first, the peptide text is derived from it. Bridges are numbered along the chain shown (N, C = ends). [ ]: non-standard residue; d: D form. dHyp = O=C(O)[C@H]1C[C@H](O)CN1; dPen = CC(C)(S)[C@@H](N)C(=O)O; dDab = NCC[C@@H](N)C(=O)O; Dab = NCC[C@H](N)C(=O)O

Columns and labels:
[1] = tested on: E. coli ATCC 25922 LptA Q62L mutant; assay: microbe, parasite or virus in culture; details: for MIC: Escherichia coli
Procedure: (§1) MIC assays [Clinical and Laboratory Standards Institute (CLSI) methodology] and serial passage studies were performed as described by Luther et al. ([6]). […] Resistant mutants were isolated, and their MIC values were determined and sent to Microbes NG (Birmingham, United Kingdom) for whole-genome sequencing and bioinformatic analysis.

[2] = tested on: K. pneumoniae NCTC 13443 (NDM-1) (parent / WT); assay: microbe, parasite or virus in culture; details: Klebsiella pneumoniae
Procedure: as §1

[3] = tested on: E. coli ATCC 25922 (parent / WT); assay: microbe, parasite or virus in culture; details: for MIC: Escherichia coli
Procedure: as §1

[4] = tested on: K. pneumoniae ATCC 43816 (parent / WT); assay: microbe, parasite or virus in culture; details: for MIC: Klebsiella pneumoniae
Procedure: as §1

[5] = tested on: K. pneumoniae 968733 (CST-R); assay: MIC assay (CLSI); assay type: cell-based, Klebsiella pneumoniae
Procedure: as §1

[6] = tested on: K. pneumoniae ATCC 43816 LptA Q62L mutant; assay: microbe, parasite or virus in culture
Procedure: as §1

[7] = tested on: Klebsiella pneumoniae NCTC 13443 LptA I36S mutant; assay: microbe, parasite or virus in culture; details: Klebsiella pneumoniae, NCTC13443, read-out: MIC Klebsiella pneumoniae NCTC 13443 LptA I36S (2x)
Procedure: as §1

[8] = tested on: Klebsiella pneumoniae ATCC 43816 LapB mutant; assay: microbe, parasite or virus in culture; details: Klebsiella pneumoniae, ATCC43816, read-out: MIC Klebsiella pneumoniae ATCC 43816 LapB (1x)
Procedure: as §1

[9] = tested on: Klebsiella pneumoniae ATCC 43816 LptA L116Q mutant; assay: microbe, parasite or virus in culture; details: Klebsiella pneumoniae, ATCC43816, read-out: MIC Klebsiella pneumoniae ATCC 43816 LptA L116Q (1x)
Procedure: as §1

[10] = tested on: Escherichia coli ATCC 25922 KdsD mutant; assay: microbe, parasite or virus in culture; details: Escherichia coli, ATCC25922, read-out: MIC Escherichia coli ATCC 25922 KdsD (2x)
Procedure: as §1

[11] = tested on: Klebsiella pneumoniae ATCC 43816 LptA I36N mutant; assay: microbe, parasite or virus in culture; details: Klebsiella pneumoniae, ATCC43816, read-out: MIC Klebsiella pneumoniae ATCC 43816 LptA I36N (1x)
Procedure: as §1

[12] = tested on: Klebsiella pneumoniae NCTC 13443 LpxC, LpxD mutant; assay: microbe, parasite or virus in culture; details: Klebsiella pneumoniae, NCTC13443, read-out: MIC Klebsiella pneumoniae NCTC 13443 LpxC, LpxD (1x)
Procedure: as §1

[13] = tested on: Klebsiella pneumoniae ATCC 43816 PglJ, PhnJ, ThiH mutant; assay: microbe, parasite or virus in culture; details: Klebsiella pneumoniae, ATCC43816, read-out: MIC Klebsiella pneumoniae ATCC 43816 PglJ, PhnJ, ThiH (1x)
Procedure: as §1

[14] = tested on: Klebsiella pneumoniae ATCC 43816 LptA I36S mutant; assay: microbe, parasite or virus in culture; details: Klebsiella pneumoniae, ATCC43816, read-out: MIC Klebsiella pneumoniae ATCC 43816 LptA I36S (1x)
Procedure: as §1

[15] = tested on: Escherichia coli ATCC 25922 LptA E84D mutant; assay: microbe, parasite or virus in culture; details: Escherichia coli, ATCC25922, read-out: MIC Escherichia coli ATCC 25922 LptA E84D (1x)
Procedure: as §1

[16] = tested on: Klebsiella pneumoniae NCTC 13443 YejM mutant; assay: microbe, parasite or virus in culture; details: Klebsiella pneumoniae, NCTC13443, read-out: MIC Klebsiella pneumoniae NCTC 13443 YejM (1x)
Procedure: as §1

[17] = tested on: K. pneumoniae NCTC 13443 (NDM-1) LptA Q62L mutant; assay: microbe, parasite or virus in culture; details: Klebsiella pneumoniae, NCTC13443, read-out: MIC Klebsiella pneumoniae NCTC 13443 LptA Q62L (5x)
Procedure: as §1

[18] = CLSI method, clone harboring LptA Q62L

## CN(C)c1cc(NC(=O)CNC(C)(C)C)c(O)c2c1C[C@H]1C[C@H]3[C@H](N(C)C)C(O)=C(C(N)=O)C(=O)[C@@]3(O)C(O)=C1C2=O [Tigecycline, reference compound]
[1]; ATCC25922, read-out: MIC E. coli ATCC 25922 Q62L mutant
  MIC: 0.25 µg/mL (≈ 0.427 µM)
[2]; NCTC13443, read-out: MIC K. pneumoniae NCTC 13443 (NDM-1) Parent
  MIC: 2 µg/mL (≈ 3.41 µM)
[3]; ATCC25922, read-out: MIC E. coli ATCC 25922 Parent
  MIC: 0.25 µg/mL (≈ 0.427 µM)
[4]; ATCC43816, read-out: MIC K. pneumoniae ATCC 43816 Parent
  MIC: 0.5 µg/mL (≈ 0.854 µM)
[5]; Klebsiella pneumoniae, read-out: MIC K. pneumoniae 968733 (CST-R) Parent
  MIC: 0.5 µg/mL (≈ 0.854 µM)

## CC[C@@H](C)[C@@H](NC(=O)[C@H]1C[C@H](O)CN1C(=O)[C@H](N)C(C)C)C(=O)N[C@@H](C(=O)N[C@H](Cc1ccc(O)cc1)C(=O)N[C@H]1C(=O)N[C@H](CC(N)=O)C(=O)N[C@H](CCCNC(=N)N)C(=O)N[C@H](CCN)C(=O)N[C@H]([C@H](C)O)C(=O)N[C@@H](CCN)C(=O)N[C@H](CCCCN)C(=O)N[C@@H](C(=O)N[C@H](CCN)C(=O)N[C@H](CCCNC(=N)N)C(=O)N[C@H](Cc2ccc(O)cc2)C(=O)O)CSSC1(C)C)[C@H](C)O [6-enant.] (H-[dV][dHyp][dI][dT][dY][dPen][dN][dR][dDab][dT][Dab][dK][dC][dDab][dR][dY]-OH; disulfide 6-13)
[1]; [18]
  MIC E. coli ATCC 25922 Q62L mutant: >8 micrograms per milliliter
[3]; CLSI method, parent strain
  MIC E. coli ATCC 25922 Parent: >8 micrograms per milliliter
[4]; CLSI method, parent strain
  MIC K. pneumoniae ATCC 43816 Parent: >8 micrograms per milliliter
[6]; [18]
  MIC K. pneumoniae ATCC 43816 Q62L mutant: >8 micrograms per milliliter
[5]; CLSI method, colistin-resistant strain
  MIC K. pneumoniae 968733 (CST-R) Parent: >8 micrograms per milliliter

## CN[C@H](CC(C)C)C(=O)N[C@H]1C(=O)N[C@@H](CC(N)=O)C(=O)N[C@H]2C(=O)N[C@H]3C(=O)N[C@H](C(=O)N[C@H](C(=O)O)c4cc(O)cc(O)c4-c4cc3ccc4O)[C@H](O)c3ccc(c(Cl)c3)Oc3cc2cc(c3O[C@@H]2O[C@H](CO)[C@@H](O)[C@H](O)[C@H]2O[C@H]2C[C@](C)(N)[C@H](O)[C@H](C)O2)Oc2ccc(cc2Cl)[C@H]1O [Vancomycin]
[1]; ATCC25922, read-out: MIC Escherichia coli ATCC 25922 LptA Q62L (7x)
  MIC: > 64 µg/mL
[7]
  MIC: > 64 µg/mL
[2]; NCTC13443, read-out: MIC Klebsiella pneumoniae NCTC 13443 WT
  MIC: > 64 µg/mL
[8]
  MIC: > 64 µg/mL
[3]; ATCC25922, read-out: MIC Escherichia coli ATCC 25922 WT
  MIC: > 64 µg/mL
[9]
  MIC: > 64 µg/mL
[10]
  MIC: > 64 µg/mL
[4]; ATCC43816, read-out: MIC Klebsiella pneumoniae ATCC 43816 WT
  MIC: > 64 µg/mL
[11]
  MIC: > 64 µg/mL
[6]; Klebsiella pneumoniae, ATCC43816, read-out: MIC Klebsiella pneumoniae ATCC 43816 LptA Q62L (4x)
  MIC: > 64 µg/mL
[12]
  MIC: > 64 µg/mL
[13]
  MIC: > 64 µg/mL
[14]
  MIC: > 64 µg/mL
[15]
  MIC: > 64 µg/mL
[16]
  MIC: > 64 µg/mL
[17]
  MIC: > 64 µg/mL
